# Measurements: US9169291B2, “Covalent conjugates between endoperoxides and transferrin and lactoferrin receptor-binding agents” (University of Washington, priority 2006, dated 2015)
# Read-outs that look alike come from different tables or passages of the source.
# Key:
# normal human lymphocytes = experiment: Toxicity of artemisinin-tagged peptide in normal lymphocytes (cell counting)
# Protocol: (§1) The artemisinin-tagged peptide HAIYPRH was tested on human Molt-4 lymphobastoid leukemia cells and compared with normal human lymphocytes, as follows. […] Cell viability was determined before an experiment by using trypan blue dye exclusion. After an initial counting of cells, human holotransferrin (Sigma Chemicals, St. Louis, Mo.) was added to samples of the cells. […] An equal volume of medium was added to control samples. […] At 24, 48 and 72 hrs after the addition of the tagged peptide, cell concentrations in appropriate flasks were counted using a counting hemocytometer chamber and microscope. In a similar set up, the same procedures were carried out on normal human lymphocytes.
# human leukemia cells = details: cited from earlier work
# [1] = cited from earlier work
# [2] = tested on: human Molt-4 lymphobastoid leukemia cells; experiment: cells; details: for IC50: read-out: IC50 on Molt-4 cells
# Protocol: as §1
# [3] = tested on: DAOY human Medulloblastoma cells; details: for relative effectiveness on medulloblastoma cells (DAOY cells): two versus one artemisinin moiety
# Protocol: DAOY human Medulloblastoma cells (10,000 cells/200 μL) were seeded on a 96 well plate and incubated for 24 h at 37° C. Cell culture medium was removed after 24 h and 150 μL of medium with different combinations of drug treatment was added. Human holotransferrin (20 μM) was added to half of the samples. Treatment medium was removed after 48 h, and 100 μL of cell medium was added, and the following protocol was used to determine cell viability: (1) 10 μL of 12 mM MTT reagent was added to each well; (2) the cultures were incubated at 37° C. for 4 h; (3) 100 μL of isopropanol was added to each well to lyse the cells and then incubated at 4° C. for 30 min; (4) after incubation each well was plunged (3×200 μL) to ensure the cells were lysed; (5) the samples were then centrifuged at 13,000 rpm in a microcentrifuge for 3 min at room temperature; and (6) 100 μL of the supernatant was read in a plate reader at λ=570 nm.
structure (smiles),measurement,setting,value
CC[C@H](C)[C@H](NC(=O)[C@H](C)NC(=O)[C@H](Cc1c[nH]cn1)NC(=O)c1ccc(/C=N/NC(=O)c2ccc(COC3OC4O[C@@]5(C)CCC6[C@H](C)CCC([C@H]3C)[C@@]46OO5)cc2)cc1)C(=O)N[C@@H](Cc1ccc(O)cc1)C(=O)N1CCC[C@H]1C(=O)N[C@@H](CCCNC(=N)N)C(=O)N[C@@H](Cc1c[nH]cn1)C(N)=O (stereo partly shown) [ART-peptide],effect on normal lymphocytes (cell viability),"normal human lymphocytes; 3.1, 6.2, 12.4 μM, 24, 48 and 72 hours",without affecting normal lymphocytes
C[C@@H]1CC[C@H]2[C@@H](C)C(=O)O[C@@H]3O[C@@]4(C)CC[C@@H]1[C@]32OO4 [Artemisinin],therapeutic index (toxicity towards cancer cells versus normal cells),human leukemia cells,approximately 100
C[C@H]1[C@H](OC(=O)CCC(=O)O)O[C@@H]2O[C@@]3(C)CC[C@H]4[C@H](C)CC[C@@H]1[C@@]24OO3 [artesunate],adverse side effects,"[1]; cancer patient, 9 months (i.m. 60 mg/day 15 days; oral 50 mg per day 8.5 months)",No apparent adverse side effects
CO[C@H]1O[C@@H]2O[C@@]3(C)CC[C@H]4[C@H](C)CC[C@@H]([C@H]1C)[C@@]24OO3 [artemether],adverse side effects,"[1]; patient with pituitary macroadenoma, oral, 12 months",without any observed adverse side effects
"C[C@H]1[C@@H](O)O[C@@H]2O[C@@]3(C)CC[C@H]4[C@H](C)CC[C@@H]1[C@@]24OO3 [DHA, dihydroartemisinin]",IC50,"[2]; Homo sapiens, MOLT-4, 72 h",5.3 ± 0.26 µM
same,LD50 (μM) (fresh sample),"[2]; fresh sample, after 72 hr",5.3 ± 0.26 µM
same,LD50 (μM) (after stored in DMSO at room temperature for 30 days),"[2]; stored in DMSO at room temperature for 30 days, after 72 hr",5.01 ± 0.35 µM
same,IC50,"normal human lymphocytes; Homo sapiens, Lymphocyte, read-out: IC50 for normal leukocytes",43 ± 22 µM
CC[C@H](C)[C@H](NC(=O)[C@H](C)NC(=O)[C@H](Cc1c[nH]cn1)NC(=O)[C@H](CCCCNC(=O)c1ccc(/C=N/NC(=O)c2ccc(COC3OC4O[C@@]5(C)CCC6[C@H](C)CCC([C@H]3C)[C@@]46OO5)cc2)cc1)NC(=O)c1ccc(/C=N/NC(=O)c2ccc(COC3OC4O[C@@]5(C)CCC6[C@H](C)CCC([C@H]3C)[C@@]46OO5)cc2)cc1)C(=O)N[C@@H](Cc1ccc(O)cc1)C(=O)N1CCC[C@H]1C(=O)N[C@@H](CCCNC(=N)N)C(=O)N[C@@H](Cc1c[nH]cn1)C(N)=O (stereo partly shown) [ART2-peptide],change in activity after storage in DMSO,[2]; kept in DMSO at room temperature for one month,essentially no change in activity
same,IC50,"[2]; at 72 hrs, holotransferrin 12 μM",0.86 ± 0.1 µM
same,effect on medulloblastoma cells (DAOY cells),"[3]; 48 h treatment, MTT",effective
same,relative effectiveness on medulloblastoma cells (DAOY cells),[3],more effective than ART-peptide
same,relative effectiveness on medulloblastoma cells (DAOY cells),[3]; listed as peptide containing two artemisinin moieties,more potent than peptide containing one moiety
